Measurements published in patent US9714243B2, “4-pyridinonetriazine derivatives as HIV integrase inhibitors” (Merck Sharp & Dohme Corp., priority 2012, dated 2017).
Like-named read-outs stand apart in the source and are kept apart here.

Tested on: HIV-1 (NL4-3 strain)
Experiment: Assay for inhibition of HIV replication (ViKinG; infected MT4-GFP cells)
Assay type: cell-based
How it was run: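 MT4-GFP cells infected with NL4-3 at low MOI for 24 h, washed, then exposed to serially diluted compound (0.4% DMSO) in RPMI. GFP+ cells counted at 24 and 48 h; R0 = 48 h/24 h ratio, inhibition normalised to DMSO and triple-drug controls, IC50 from 4-parameter fit.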

[1] = MT4-GFP cells infected with HIV-1 NL4-3, 10% normal human serum (NHS), read-out: ViKinG IP (nM) with 10% NHS
[2] = MT4-GFP cells infected with HIV-1 NL4-3, 100% normal human serum (NHS), read-out: ViKinG IP (nM) with 100% NHS
[3] = Human immunodeficiency virus 1, NL43, MT4-GFP cells infected with HIV-1 NL4-3, 10% normal human serum (NHS), read-out: ViKinG IP (nM) with 10% NHS
[4] = Human immunodeficiency virus 1, NL43, MT4-GFP cells infected with HIV-1 NL4-3, 100% normal human serum (NHS), read-out: ViKinG IP (nM) with 100% NHS
[5] = MT4-GFP cells infected with HIV-1 NL4-3, 0% normal human serum (NHS), read-out: ViKinG IP (nM) with 0% NHS
[6] = Human immunodeficiency virus 1, NL43, MT4-GFP cells infected with HIV-1 NL4-3, 0% normal human serum (NHS), read-out: ViKinG IP (nM) with 0% NHS

Q: What does the source list for `CN1C2CCCCN2C(=O)c2c(O)c(=O)c(-c3nnc(Cc4ccc(F)cc4)s3)cn21` (centres unmarked) [Compound 154]?
A: IC50 [1]: 33.9 nM; IC50 [2]: 1590 nM

Q: `CC1CCC2N1C(=O)c1c(O)c(=O)c(-c3nnc(Cc4ccc(F)cc4F)s3)cn1N2C` (centres unmarked) [Compound 156] was tested. Which IC50 [3] did it give?
A: 26.7 nM

Q: What about the IC50 [4] of the same compound?
A: 989 nM

Q: With `CN1C2CCCCN2C(=O)c2c(O)c(=O)c(-c3nnc(Cc4ccc(F)cc4F)s3)cn21` (centres unmarked) [Compound 157] as the compound, how does the IC50 [3] read?
A: 14.2 nM

Q: And the IC50 [4]?
A: 613 nM

Q: Which IC50 [1] does the source give for `CN1C2CCCCN2C(=O)c2c(O)c(=O)c(-c3nnc(Cc4ccc(F)cc4F)s3)cn21` (centres unmarked) [Compound 158] here?
A: 17.7 nM

Q: What about the IC50 [2] of the same compound?
A: 503 nM

Q: For `CN1C2COCCN2C(=O)c2c(O)c(=O)c(-c3nnc(Cc4ccc(F)cc4)s3)cn21` (centres unmarked) [Compound 161], which IC50 [1] is on record?
A: 41.1 nM

Q: And the IC50 [2]?
A: 465 nM

Q: Which results are given for `CN1C2COCCN2C(=O)c2c(O)c(=O)c(-c3nnc(Cc4ccc(F)cc4)s3)cn21` (centres unmarked) [Compound 162]?
A: IC50 [1]: 10.8 nM; IC50 [2]: 186 nM

Q: With `CN1C2C(O)CCCN2C(=O)c2c(O)c(=O)c(-c3nnc(Cc4ccc(F)cc4F)s3)cn21` (centres unmarked) [Compound 164] as the compound, how does the IC50 [5] read?
A: 3.48 nM

Q: What about the IC50 [2] of the same compound?
A: 82.2 nM

Q: `CN1C2C(O)CCCN2C(=O)c2c(O)c(=O)c(-c3nnc(Cc4ccc(F)cc4F)s3)cn21` (centres unmarked) [Compound 165] was tested. Which IC50 [5] did it give?
A: 5.12 nM

Q: What about the IC50 [2] of the same compound?
A: 54 nM

Q: Which results are given for `CN1C2C(O)CCCN2C(=O)c2c(O)c(=O)c(-c3nnc(Cc4ccc(F)cc4F)s3)cn21` (centres unmarked) [Compound 166]?
A: IC50 [5]: 9 nM; IC50 [2]: 162 nM

Q: What does the source list for `CN1C2C(O)CCCN2C(=O)c2c(O)c(=O)c(-c3nnc(Cc4ccc(F)cc4F)s3)cn21` (centres unmarked) [Compound 167]?
A: IC50 [5]: 2.52 nM; IC50 [2]: 41.9 nM

Q: Which IC50 [3] does the source give for `CCN1C(=O)c2c(O)c(=O)c(-c3nnc(Cc4ccc(F)cc4)s3)cn2N(CCOC)C1C` (centres unmarked) [Compound 169] here?
A: 90 nM

Q: And the IC50 [4]?
A: 1510 nM

Q: `CCN1C(=O)c2c(O)c(=O)c(-c3nnc(Cc4ccc(F)cc4)s3)cn2N(CC(=O)N(C)C)C1(C)C` [Compound 171] was tested. Which IC50 [3] did it give?
A: 21 nM

Q: What about the IC50 [4] of the same compound?
A: 673 nM

Q: `COCCN1C(=O)c2c(O)c(=O)c(-c3nnc(Cc4ccc(F)cc4F)s3)cn2N(C)C12CCC2` [Compound 173] was tested. Which IC50 [6] did it give?
A: 7 nM

Q: And the IC50 [4]?
A: 526 nM

Q: For `CN1C(=O)c2c(O)c(=O)c(C(=O)NCc3ccc(F)cc3F)cn2CC12CC2` [Compound 174], which IC50 [6] is on record?
A: 2.87 nM

Q: And the IC50 [4]?
A: 125 nM

Q: With `C[C@H]1n2cc(C(=O)NCc3ccc(F)cc3F)c(=O)c(O)c2C(=O)N(C)C12CC2` [Compound 175] as the compound, how does the IC50 [6] read?
A: 1.54 nM

Q: And the IC50 [4]?
A: 37.1 nM

Q: What does the source list for `C[C@@H]1n2cc(C(=O)NCc3ccc(F)cc3F)c(=O)c(O)c2C(=O)N(C)C12CC2` [Compound 176]?
A: IC50 [6]: 2.12 nM; IC50 [4]: 39 nM

Q: `COCCN1C(=O)c2c(O)c(=O)c(C(=O)NCc3ccc(F)cc3F)cn2CC12CCC2` [Compound 177] was tested. Which IC50 [6] did it give?
A: 5.03 nM

Q: What about the IC50 [4] of the same compound?
A: 4790 nM

Q: How did the IC50 [6] turn out when `CN1C(=O)c2c(O)c(=O)c(C(=O)NCc3ccc(F)cc3F)cn2CC12CCC2` [Compound 178] was run?
A: 2.73 nM

Q: And the IC50 [4]?
A: 233 nM

Q: With `CCN1C(=O)c2c(O)c(=O)c(C(=O)NCc3ccc(F)cc3F)cn2CC12CC2` [Compound 179] as the compound, how does the IC50 [6] read?
A: 2.86 nM

Q: And the IC50 [4]?
A: 1360 nM

Q: `COCCN1C(=O)c2c(O)c(=O)c(C(=O)NCc3ccc(F)cc3F)cn2CC12CC2` [Compound 180] was tested. Which IC50 [6] did it give?
A: 1.8 nM

Q: What about the IC50 [4] of the same compound?
A: 611 nM

Q: What does the source list for `COC1CCC2(CC1)Cn1cc(C(=O)NCc3ccc(F)cc3F)c(=O)c(O)c1C(=O)N2C` (centres unmarked) [Compound 181]?
A: IC50 [6]: 2.48 nM; IC50 [4]: 28.9 nM

Q: `CCOC1CCC2(CC1)Cn1cc(C(=O)NCc3ccc(F)cc3F)c(=O)c(O)c1C(=O)N2CC` (centres unmarked) [Compound 182] was tested. Which IC50 [6] did it give?
A: 4.02 nM

Q: And the IC50 [4]?
A: 45.5 nM

Q: With `COCCN1C(=O)c2c(O)c(=O)c(C(=O)NCc3ccc(F)cc3F)cn2[C@@H](C)C12CC2` [Compound 183] as the compound, how does the IC50 [6] read?
A: 3.17 nM

Q: And the IC50 [4]?
A: 188 nM

Q: With `COCCN1C(=O)c2c(O)c(=O)c(C(=O)NCc3ccc(F)cc3)cn2[C@@H](C)C12CC2` [Compound 184] as the compound, how does the IC50 [6] read?
A: 2.66 nM

Q: And the IC50 [4]?
A: 178 nM

Q: Which results are given for `COCCN1C(=O)c2c(O)c(=O)c(C(=O)NCc3ccc(F)c(F)c3F)cn2[C@@H](C)C12CC2` [Compound 185]?
A: IC50 [6]: 2.2 nM; IC50 [4]: 212 nM
